Data set [1] relates to Gli4 cells. Briefly: Gli4 intracranial model. In kind it is in vivo, mice. How it is done:
2×10^5 Gli4 cells were injected into a group of mice (right striatal injection, injection coordinates: bregma 0 L-L: L: −1.5 mm P: −3.5-2.5). The mice were immediately treated for four weeks at a rate of three injections at 10 mg/kg of compound 3.48a per week (formulation 1, group B) or using 100 μl of NaCl according to the same treatment protocol (group A) and sacrificed after ten weeks.
In the group of control mice (group A), dispersed Gli4 cells are observed, which migrated along the corpus callosum and passed into the other hemisphere. […] This migration reflects migration along the white matter, as observed in human glioblastoma multiformes (dispersion as an intra-fascicular growth along the white matter).

Data set [2] has as its system GBM line C6. Kind of data set: Boyden chamber migration test, C6. The data set is classed as cell-based, rat. Particulars: various extracellular matrix substrates.
Data set [3] deals with SNB75 human GBM line. Kind of data set: Boyden chamber migration test, SNB75. The data set is classed as cell-based. Particulars: for Ki: SNB75, 24 hours, read-out: Inhibition constant Ki, migration. How it is done:
(§1) The effects of compounds 3.48a, 4.2a and 5.6d on the migration of cancer cells (human glioblastoma line SNB75 or primary culture of human glioblastoma Gli4F1, on the one hand, and MDAMB 435 and A431 on the other hand), were determined by performing a standard migration test in a Boyden chamber (treatment of the cells for 24 hours).
(§2) For this test, the compounds were dissolved in vitro and used in culture in 0.3% of DMSO. The interior of the inserts was covered with the extracellular matrix protein studied (laminin-1, vitronectin or fibronectin). The cells pretreated at various concentrations and untreated (controls) were deposited in the inserts covered with said protein at a rate of 50 000 cells/500 μl/insert in a medium containing 0.1% of BSA (bovine serum albumin).
(§3) 500 μl of medium containing 10% fetal calf serum were then placed in each well of a Companion plate so as to allow the formation of a chemotactic gradient across the porous membrane. After 24 hours of migration in the incubator at 37° C., the supernatent was removed and the inserts rinsed with PBS on each face. The cells were counted with a microscope (Zeiss Axiophot, magnification ×200). This gives a percentage of migration relative to the untreated cells.
(§4) Table 2 below gives, for compound 3.48a, the values for the inhibition constants (Ki) for the migration of a human GBM line (SNB75), of GBM stem cell lines (Gli4, Gli7) and of a breast cancer line MDAMB231, in a Boyden chamber, on various extracellular matrix protein supports. Tables 3 and 4 below give, for compounds 4.2a and 5.6d, the values of the inhibition constants (Ki) for the migration of a melanoma line (MDAMB-435) or of an epidermoid cancer line (A431), in a Boyden chamber, on various extracellular matrix protein supports. The inhibitory effect depends on the line and the stem cells used, but also on the extracellular matrix protein support used.

The nature of data set [4]: Solubility / formulation behaviour. In kind it is physicochemical. How it is done: The following two formulations are particularly suited to compounds 3.48a and 4.2a and allow their in vivo administration, at concentrations of about 20-100 mg/kg, intravenously: […]
For data set [5], the system named is SNB75 cells. Kind of data set: SNB75 subcutaneous model. The data set is classed as in vivo, mice. How it is done: Nude female mice 4-5 weeks old with an average weight of […], supplied by the R. Janvier breeding center, were used. The mice were kept in a pathogen-free environment and with food and water present ad libitum. The experiments were commenced after one week of acclimatizing the mice to their new environment.
A suspension of 5×10^6 SNB75 cells in 100 μl of sterile PBS (phosphate-buffered saline, provided by Fisher) was injected into each mouse (subcutaneous administration without anesthesia). Once the mice presented tumors with volumes of between […], groups were formed so that each of them contained an equivalent number of large, medium and small tumors. The protocol was conducted with five groups of seven mice. The five groups of mice were treated using one of the five formulations described below:
Group A: Treatment by injection of 100 μl of NaCl (control N° 1).
Group B: Treatment with compound 3.48a at a rate of 10 mg/kg with volumes of 100 to 150 μl of formulation 2 according to the weight of the mice.
Group C: Treatment with compound 3.48a at a rate of 5 mg/kg with volumes of 100 to 150 μl of formulation 2 according to the weight of the mice.
Group D: Treatment with temozolomide at a rate of 20 mg/kg with volumes of 100 to 150 μl according to the weight of the mice. Temozolomide is a comparative anticancer active principle sold under the name Temodal by the laboratory Schering Plough. It is indicated for treating glioblastoma multiforme.
Group E: Treatment by injection of 100 to 150 μl according to the weight of the mice of formulation 2 not containing compound 3.48a (control N° 2).
Each batch was treated by intravenous injection into the caudal vein of 100 to 150 μl of solution (precision syringe and G25X1 needle ultrafine wall, VWR). Three injections per week for four weeks were performed. The mice were weighed at each injection. The sizes of the tumors were measured twice a week for a period of four weeks. The mice were sacrificed after four weeks and the tumors and organs (liver, kidney, spleen, brain, intestine, heart, muscles) were removed. A histological analysis was performed on these organs.

In data set [6] the test system is Gli7 GBM stem cells. Briefly: Boyden chamber migration test, Gli7. The data set is classed as cell-based, human. Particulars: 24 hours, read-out: Inhibition constant Ki, migration. How it is done: as §1, §2, §3, §4
The subject of data set [7] is Gli4 GBM stem cells. Kind of data set: Boyden chamber migration test, Gli4. The data set is classed as cell-based, human. To be noted: 24 hours, read-out: Inhibition constant Ki, migration. On the procedure:
as §1, §2, §3, §4

The nature of data set [8]: Acute in vivo toxicity. Particulars: healthy mice; 50, 25, 10, 5 and 1 mg/kg; maximum dose 50 mg/kg. How it is done: Studies of the acute toxicity of compounds 3.48a and 4.2a were performed on healthy mice for a concentration range of 50, 25, 10, 5 and 1 mg/kg.
[9] abbreviates: 10 and 5 mg/kg i.v. (groups B and C), three injections per week for four weeks.

Structures are written as SMILES. Like-named read-outs stand apart in the source and are kept apart here.

Turning to `O=[P@@]1(c2ccccc2)O[C@H](COCc2ccccc2)[C@@H](OCc2ccccc2)[C@H](OCc2ccccc2)[C@H]1O` [Compound 3.48a, 4,5-bis-benzyloxy-6-benzyloxymethyl-2-phenyl-2-oxo-2λ^5-[1,2]oxaphosphinan-3-ol], the “Cell migration in brain during treatment” value in data set [1] (10 mg/kg, three injections per week, four-week treatment (formulation 1)) is recorded as “made it possible to inhibit cell migration”. Besides, the “Cell growth and migration after stopping the treatment” value in data set [1] (final six weeks after the four-week treatment at 10 mg/kg) was “resumption of the growth and migration of the cells was observed”. In addition, in data set [2], the “Inhibition of cell migration” value is reported as “inhibits the cell migration”. Besides, in data set [3] (Homo sapiens, SNB-75, SNB75 line, on fibronectin or vitronectin, read-out: Concentration for a 50% decrease in migration of the cancer cells), the IC50 fell in the range of 1 to 100 nM. In addition, the Ki in data set [3] (support Fibronectin) amounted to 27 nM; in data set [3] (support Laminin) it was 23000 nM; in data set [3] (support Vitronectin) it was 87 nM; in data set [6] (support Fibronectin) it was 37 nM; in data set [6] (support Laminin), 310 nM; in data set [6] (support Vitronectin) it was 371 nM. Further, the Ki in data set [7] (support Fibronectin) was determined as 1 nM; in data set [7] (support Laminin) it was 11 nM; in data set [7] (support Vitronectin), 5 nM. For the same compound, in data set [4], the Complexation in cyclodextrins entry is “non-complexible in cyclodextrins”. In addition, the Solubility entry in data set [4] (water, water-soluble solvents) is recorded as “insoluble in water, in numerous water-soluble solvents”. The Mortality entry in data set [5] (setting [9]) is recorded as “none of the mice died”. Also, the Weight loss result in data set [5] (setting [9]) is on record as “no weight loss was observed”. The “Growth of the primary tumor” value in data set [5] (10 and 5 mg/kg i.v. (groups B and C), three injections per week, after four weeks, vs control groups) is listed as “a very great reduction in the growth of the primary tumor”. Besides, the Development of metastases result in data set [5] (10 and 5 mg/kg i.v. (groups B and C), controls all developed metastases in liver and intestine) was “None of the mice treated with compound 3.48a (groups B and C) developed metastases”. The “Metastases in the liver (FIG. 1A)” value in data set [5] (a mouse from group B (10 mg/kg), eight weeks after implantation) is “absence of metastases in the liver”. For the same compound, in data set [8], the “Mortality, acute toxicity” value is on record as “No mortality was observed”.

These data come from patent US20150376216A1, “SUGAR-ANALOG PHOSPHORUS-CONTAINING HETEROCYCLES HAVING AN ANTI-METASTATIC ACTIVITY” (CENTRE NATIONAL DE LA RECHERCHE SCIENTIRIQUE, priority 2013, published 2015).
